# Assay results taken from the supplement of paper PMC10307832.
# Assays:
# Assay in all cases: relative viability (nuclei count vs DMSO), 5 days (fraction); higher = more cells survive
# Zebularine + Crizotinib = compound: O=c1ncccn1[C@@H]1O[C@H](CO)[C@@H](O)[C@H]1O [Zebularine] + C[C@@H](Oc1cc(-c2cnn(C3CCNCC3)c2)cnc1N)c1c(Cl)ccc(F)c1Cl [Crizotinib] (partner 1 µM)
# How it was run: (§1)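 A single step with final 0.05% Triton X-100, 1% formaldehyde and 1 ug/ml Hoechst fixed the cells and stained nuclei 5 days after treatment. Lung cancer cell lines in 1536-well plates had been treated by pin tool the day after seeding with one drug alone or a fixed anchor-drug dose plus five library-drug doses (not always all listed) in √10 steps, and nuclei were counted on 4× images. Relative viability is the ratio of nuclei in treated wells to nuclei in vehicle wells, taken as the median of duplicate plates.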
# Zebularine + Bortezomib = compound: O=c1ncccn1[C@@H]1O[C@H](CO)[C@@H](O)[C@H]1O [Zebularine] + CC(C)C[C@H](NC(=O)[C@H](Cc1ccccc1)NC(=O)c1cnccn1)B(O)O [Bortezomib] (partner 0.002 µM)
# How it was run: as §1
# BI-D1870 + Tozasertib = compound: CC(C)CCN1c2nc(Nc3cc(F)c(O)c(F)c3)ncc2N(C)C(=O)C1C [BI-D1870] + Cc1cc(Nc2cc(N3CCN(C)CC3)nc(Sc3ccc(NC(=O)C4CC4)cc3)n2)n[nH]1 [Tozasertib] (partner 0.1 µM)
# How it was run: as §1
# BI-D1870 + Foretinib = compound: CC(C)CCN1c2nc(Nc3cc(F)c(O)c(F)c3)ncc2N(C)C(=O)C1C [BI-D1870] + COc1cc2c(Oc3ccc(NC(=O)C4(C(=O)Nc5ccc(F)cc5)CC4)cc3F)ccnc2cc1OCCCN1CCOCC1 [Foretinib] (partner 0.25 µM)
# How it was run: as §1
cell line,measurement,setting,value
UMC-11,relative viability,Zebularine + Crizotinib; first compound 1 µM,0.666
same,relative viability,Zebularine + Crizotinib; first compound 3.162 µM,0.489
same,relative viability,Zebularine + Crizotinib; first compound 10 µM,0.397
same,relative viability,Zebularine + Crizotinib; first compound 31.62 µM,0.374
same,relative viability,Zebularine + Crizotinib; first compound 100 µM,0.343
same,relative viability,Zebularine + Bortezomib; first compound 1 µM,0.728
same,relative viability,Zebularine + Bortezomib; first compound 3.162 µM,0.844
same,relative viability,Zebularine + Bortezomib; first compound 10 µM,0.45
same,relative viability,Zebularine + Bortezomib; first compound 31.62 µM,0.538
same,relative viability,Zebularine + Bortezomib; first compound 100 µM,0.297
same,relative viability,BI-D1870 + Tozasertib; first compound 0.04 µM,0.197
same,relative viability,BI-D1870 + Tozasertib; first compound 0.1265 µM,0.205
same,relative viability,BI-D1870 + Tozasertib; first compound 0.4 µM,0.195
same,relative viability,BI-D1870 + Tozasertib; first compound 1.265 µM,0.191
same,relative viability,BI-D1870 + Tozasertib; first compound 4 µM,0.188
same,relative viability,BI-D1870 + Foretinib; first compound 0.04 µM,1.1
same,relative viability,BI-D1870 + Foretinib; first compound 0.1265 µM,0.986
same,relative viability,BI-D1870 + Foretinib; first compound 0.4 µM,1.11
same,relative viability,BI-D1870 + Foretinib; first compound 1.265 µM,0.897
same,relative viability,BI-D1870 + Foretinib; first compound 4 µM,0.198
